Test results from patent publication US6489487B1, “Triazolone derivatives, use thereof, and intermediates therefor” (Sumitomo Chemical Company, Limited, priority 1998, dated 2002).

Row | melting point [°C] | SMILES
1 | 115.7 | Cc1ccc(-c2ccccc2)cc1Cn1c(Cl)nn(C)c1=O [Compound 7, 5-chloro-2-methyl-4-(2-methyl-5-phenylbenzyl)-2,4-dihydro-3H-1,2,4-triazol-3-one]
2 | 95.6 | CSc1nn(C)c(=O)n1Cc1cc(-c2ccccc2)ccc1C [Compound 8, 5-methylthio-2-methyl-4-(2-methyl-5-phenylbenzyl)-2,4-dihydro-3H-1,2,4-triazol-3-one]
3 | 138.9 | Cc1ccc(-c2ccccc2)cc1Cn1c(C)nn(C)c1=O [Compound 10, 2,5-dimethyl-4-(2-methyl-5-phenylbenzyl)-2,4-dihydro-3H-1,2,4-triazol-3-one]
4 | 102.4 | Cc1ccc(-c2ccccc2)cc1Cn1c(C2CC2)nn(C)c1=O [Compound 538, 5-cyclopropyl-2-methyl-4-(2-methyl-5-phenylbenzyl)-2,4-dihydro-3H-1,2,4-triazol-3-one]
